# “Also recorded” adds a separate entry of the source.
# Columns and labels:
# [1] = tested on: nicotine-stimulated sympathetic neurons co-cultured with LPS-preactivated macrophages; assay: Co-culture of sympathetic neurons and bone marrow-derived macrophages; format: cell-based, mouse; details: CVF 20 U/ml for 90 min on LPS-preactivated macrophages; 1 μM nicotine; 48 h co-culture
# Method: For the co-culture experiment, BMDM precursors were isolated and differentiated to macrophages as mentioned above. On day 6 of differentiation, primary neurons were isolated as described above. ˜5,000 neurons were seeded on separate wells of a 96-well Ibidi plate precoated with Laminin (0.1 mg/ml). At day 7 of differentiation, macrophages were either stimulated with PBS (control) or LPS (5 ng/ml) overnight. On the following day, LPS-preactivated macrophages were either incubated with PBS (control) or Cobra Venom Factor (CVF; 20 U/ml) for 90 min at 37° C. for complement inhibition. Afterwards, macrophages were chemically detached from the Petri dishes using Accutase and seeded around neurons. ˜10,000 macrophages were added per well. Co-culture medium was a mixture of neuronal and macrophage medium. Furthermore, part of the co-culture medium was supplemented with 1 μM Nicotine for artificial neuronal stimulation. 4 wells were cultivated per condition. One well per condition was transferred into the EVOS M7000 for live cell imaging (timelapse). […]
# After 48 hours of co-culture (at 37° C. and 5% CO2), cells were fixated using 4% Paraformaldehyde. […] For quantification, two tilescans (2×2) per well were acquired using a 63× objective of a confocal microscope (Leica TCS SP5 II) and quantified for neuronal cell number and axonal dimensions using Imaris (Bitplane, version 9.5). […]
# [2] = tested on: C3H/HeJ mice after bilateral removal of SCG (SCGx); assay: Assessment of diurnal rhythm after bilateral removal of SCG (SCGx); format: in vivo; details: 50 μg melatonin once intraperitoneally
Compound,"neurite outgrowth (axon length, branching points) [1]",neuronal cell loss (neuronal cell number per field of view) [1],"diurnal rhythmicity (activity, ratio between dark and light) [2]"
Cobra venom factor,rescued,effectively prevented,–
COc1ccc2[nH]cc(CCNC(C)=O)c2c1 [melatonin],–,–,completely restored; also recorded: rescued

# — US20250352562A1, “PREVENTION OF SYMPATHETIC DENERVATION OF THE PINEAL GLAND IN CARDIAC DISEASE” (TECHNISCHE UNIVERSITÄT MÜNCHEN, priority 2022, published 2025)
